Experimental findings from patent publication US20230158025A1 (UNIVERSITY OF UTAH RESEARCH FOUNDATION, priority 2020, published 2023) are described below.

pIC50: −log10 of the molar value. Where two headings read alike, the source gives them in different places. Where only a bound is given, the exact number is not on record here.

Data set [1] has as its target recombinant human GALK1 (Homo sapiens, UniProt P51570). Put plainly: hGALK1 biochemical activity assay (Kinase-Glo Plus, ATP depletion). The procedure, abridged: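 Turnover is measured as ATP depletion by Kinase-Glo Plus luminescence after a 1 h room-temperature reaction. Compounds span 11 concentrations, 57.4 μM–0.97 nM, in final 20 mM HEPES pH 8.0 with 5 mM MgCl2. The substrate solution held 35 μM ATP; the added solution held 5 nM human or mouse GALK1 and 100 μM galactose.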

Data set [2] deals with recombinant mouse GALK1 (Mus musculus, UniProt Q9R0N0). The data set can be described thus: mGALK1 biochemical activity assay (Kinase-Glo Plus, ATP depletion). The procedure, abridged:
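Recombinant GALK1 (5 nM) with 100 μM galactose; GALK1 turnover read as ATP depletion by Kinase-Glo Plus luminescence. Reaction ran 1 h at room temperature before detection reagent was added.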
In general terms: Kinase-Glo reads ATP consumption through a luciferase reaction.

A short description of data set [3]: PAMPA permeability. To be noted: for Papp: Perm. (1 × 10^−6 cm/sec). (PAMPA measures passive passage across an artificial lipid membrane.)
The nature of data set [4]: rat microsomal stability (RLM).
Data set [5] is described as follows: aqueous kinetic solubility.
[6] abbreviates: Tables 2-15, 35 μM ATP, 100 μM galactose, 1 h, bracketed figure after some values (e.g. −1.2) is undefined and not reported, read-out: hGALK IC50.
Where [7] appears, read: recombinant human GALK1, Kinase-Glo Plus ATP depletion, read-out: hGALK.
Setting [8] is: Tables 2-15, 35 μM ATP, 100 μM galactose, 1 h, bracketed figure after some values is undefined and not reported, read-out: mGALK IC50.
Setting [9] is: recombinant mouse GALK1, Kinase-Glo Plus ATP depletion, read-out: mGALK.

Chain of recombinant human GALK1 (P51570 whole entry): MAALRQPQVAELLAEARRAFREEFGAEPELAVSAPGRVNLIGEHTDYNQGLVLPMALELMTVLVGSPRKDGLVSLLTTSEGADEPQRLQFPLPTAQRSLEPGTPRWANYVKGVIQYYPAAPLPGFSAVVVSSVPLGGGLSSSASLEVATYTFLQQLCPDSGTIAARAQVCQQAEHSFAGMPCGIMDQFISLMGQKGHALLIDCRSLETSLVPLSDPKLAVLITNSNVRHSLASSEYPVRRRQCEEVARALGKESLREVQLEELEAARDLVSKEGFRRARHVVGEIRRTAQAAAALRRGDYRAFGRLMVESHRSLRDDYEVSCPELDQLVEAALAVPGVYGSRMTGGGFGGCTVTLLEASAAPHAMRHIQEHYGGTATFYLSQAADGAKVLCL
Chain of recombinant mouse GALK1 (Q9R0N0 whole entry): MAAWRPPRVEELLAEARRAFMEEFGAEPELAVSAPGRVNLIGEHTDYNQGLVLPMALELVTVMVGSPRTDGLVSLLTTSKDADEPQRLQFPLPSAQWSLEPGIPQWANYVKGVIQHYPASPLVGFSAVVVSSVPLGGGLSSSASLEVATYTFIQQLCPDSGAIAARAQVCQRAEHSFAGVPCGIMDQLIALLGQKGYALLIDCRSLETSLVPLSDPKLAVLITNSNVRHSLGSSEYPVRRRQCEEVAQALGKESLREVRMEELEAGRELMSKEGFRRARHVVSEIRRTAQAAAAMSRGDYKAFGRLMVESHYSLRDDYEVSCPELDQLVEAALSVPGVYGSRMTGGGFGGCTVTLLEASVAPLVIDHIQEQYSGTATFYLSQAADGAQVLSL

As a reminder, the Papp is a coefficient for how fast a substance crosses the barrier. With `CC1=C(C(=O)Nc2cc(C(=O)O)ccn2)C(c2ccc(C)cc2Cl)N=C(Nc2nc3cccc(N)c3o2)N1` (racemic) [Compound 79, 2-(2-((7-aminobenzo[d]oxazol-2-yl)amino)-4-(2-chloro-4-methylphenyl)-6-methyl-1,4-dihydropyrimidine-5-carboxamido)isonicotinic acid], the pIC50 was 6.92 in data set [1] (setting [6]), 6.92 in data set [1] (setting [7]), 5.76 in data set [2] (setting [8]) and 5.76 in data set [2] (setting [9]). Moreover, in data set [3] (PAMPA), the Papp was below 1 ×10⁻⁶ cm/s. The “Metab. Stabil. (m)” value in data set [4] (microsomal half-life) is above 30 m. In data set [5], the “Sol.” value is above 78 µg/mL.
As for `COc1ccc(C2N=C(Nc3nc4cccc(N)c4o3)NC(C)=C2C(=O)Nc2cc(C(=O)O)ccn2)c(Cl)c1` (racemic) [Compound 80, 2-(2-((7-aminobenzo[d]oxazol-2-yl)amino)-4-(2-chloro-4-methoxyphenyl)-6-methyl-1,4-dihydropyrimidine-5-carboxamido)isonicotinic acid], the pIC50 in data set [1] (setting [6]) was 6.85; in data set [1] (setting [7]), 6.85; in data set [2] (setting [8]) it was 5.71; in data set [2] (setting [9]), 5.71. In addition, the Papp in data set [3] (PAMPA) is below 1 ×10⁻⁶ cm/s. For the same molecule, in data set [4] (microsomal half-life), the “Metab. Stabil. (m)” value was above 30 m. Besides, in data set [5], the “Sol.” value is above 81 µg/mL.
With `CC1=C(C(=O)Nc2cc(C(=O)O)ccn2)C(c2ccccc2Cl)N=C(Nc2nc3c(N)cccc3o2)N1` (stereo not shown) [Compound 2, 2-(2-((4-aminobenzo[d]oxazol-2-yl)amino)-4-(2-chlorophenyl)-6-methyl-1,4-dihydropyrimidine-5-carboxamido)isonicotinic acid], the pIC50 is 4.66 in data set [1] (setting [7]), 4.51 in data set [2] (setting [8]) and 4.51 in data set [2] (setting [9]). The “Perm. (1 × 10^−6 cm/sec)” value in data set [3] is <1 1 × 10^−6 cm/sec. Besides, the “Metab. Stabil. (m)” value in data set [4] (microsomal half-life) is recorded as above 30 m. In data set [5], the “Sol.” value is above 76 µg/mL.
Turning to `COc1ccc2nc(NC3=NC(c4ccccc4Cl)C(C(=O)Nc4cc(C(=O)O)ccn4)=C(C)N3)oc2c1` (stereo not shown) [Compound 7, 2-(4-(2-chlorophenyl)-6-methyl-2-((6-methoxybenzo[d]oxazol-2-yl)amino)-1,4-dihydropyrimidine-5-carboxamido)isonicotinic acid], the pIC50 in data set [1] (setting [7]), in data set [2] (setting [8]) and in data set [2] (setting [9]) was 4.66 in each case. Further, in data set [3], the “Perm. (1 × 10^−6 cm/sec)” value is recorded as <1 1 × 10^−6 cm/sec. In addition, in data set [4] (microsomal half-life), the “Metab. Stabil. (m)” value is given as above 30 m. In data set [5], the “Sol.” value was above 79 µg/mL.
`CC1=C(C(=O)Nc2cc(C(=O)O)ccn2)[C@H](c2ccccc2Cl)N=C(Nc2nc3ccc(F)cc3o2)N1` [Compound 19, (R)-2-(4-(2-chlorophenyl)-2-((6-fluorobenzo[d]oxazol-2-yl)amino)-6-methyl-1,4-dihydropyrimidine-5-carboxamido)isonicotinic acid]: the pIC50 was 6.62 in data set [1] (setting [6]), 6.62 in data set [1] (setting [7]), 5.76 in data set [2] (setting [8]) and 5.76 in data set [2] (setting [9]). Also, the “Perm. (1 × 10^−6 cm/sec)” value in data set [3] is reported as <1 1 × 10^−6 cm/sec. Further, the “Metab. Stabil. (m)” value in data set [4] (microsomal half-life) was above 30 m. For the same molecule, the “Sol.” value in data set [5] worked out at 55.6 µg/mL.
For the molecule `CC1=C(C(=O)Nc2cc(C(=O)O)ccn2)[C@@H](c2ccccc2Cl)N=C(Nc2nc3ccc(F)cc3o2)N1` [Compound 20, (S)-2-(4-(2-chlorophenyl)-2-((6-fluorobenzo[d]oxazol-2-yl)amino)-6-methyl-1,4-dihydropyrimidine-5-carboxamido)isonicotinic acid], the pIC50 in data set [1] (setting [6]) is 5.51; in data set [1] (setting [7]), 5.51; in data set [2] (setting [8]), 4.86; in data set [2] (setting [9]), 4.86. The “Perm. (1 × 10^−6 cm/sec)” value in data set [3] is recorded as <1 1 × 10^−6 cm/sec. Moreover, the “Metab. Stabil. (m)” value in data set [4] (microsomal half-life) is above 30 m. Also, the “Sol.” value in data set [5] was found to be 17.3 µg/mL.
With `CC1=C(C(=O)Nc2cc(C(=O)O)ccn2)C(c2ccccc2Cl)N=C(Nc2nc3cccc([N+](=O)[O-])c3o2)N1` (stereo not shown) [Compound 23, 2-(4-(2-chlorophenyl)-6-methyl-2-((7-nitrobenzo[d]oxazol-2-yl)amino)-1,4-dihydropyrimidine-5-carboxamido)isonicotinic acid], the pIC50 in data set [1] (setting [6]) was 4.71; in data set [1] (setting [7]), 4.71; in data set [2] (setting [8]) it was 4.41; in data set [2] (setting [9]), 4.41. For the same molecule, the “Perm. (1 × 10^−6 cm/sec)” value in data set [3] is 31.0 1 × 10^−6 cm/sec. Besides, in data set [4] (microsomal half-life), the “Metab. Stabil. (m)” value is reported as above 30 m. The “Sol.” value in data set [5] amounted to 7.3 µg/mL.
As for `CC1=C(C(=O)Nc2cc(C(=O)O)ccn2)[C@@H](c2ccccc2Cl)N=C(Nc2nc3cccc(N)c3o2)N1` [Compound 25, (S)-2-(2-((7-aminobenzo[d]oxazol-2-yl)amino)-4-(2-chlorophenyl)-6-methyl-1,4-dihydropyrimidine-5-carboxamido)isonicotinic acid], the pIC50 is 5.21 in data set [1] (setting [6]), 5.21 in data set [1] (setting [7]), 4.46 in data set [2] (setting [8]) and 4.46 in data set [2] (setting [9]). In addition, the “Perm. (1 × 10^−6 cm/sec)” value in data set [3] is reported as <1.3 1 × 10^−6 cm/sec. In data set [4] (microsomal half-life), the “Metab. Stabil. (m)” value is given as above 30 m. Moreover, the “Sol.” value in data set [5] was above 76 µg/mL.
With `CC1=C(C(=O)Nc2ccc(C(=O)O)cn2)C(c2ccccc2Cl)N=C(Nc2nc3ccc(F)cc3o2)N1` (stereo not shown) [Compound 26, 6-(4-(2-chlorophenyl)-2-((6-fluorobenzo[d]oxazol-2-yl)amino)-6-methyl-1,4-dihydropyrimidine-5-carboxamido)nicotinic acid], the values for the pIC50 in data set [1] (setting [7]) and in data set [2] (setting [9]) were 6.17 and 5.46, respectively. In data set [3], the “Perm. (1 × 10^−6 cm/sec)” value was <1 1 × 10^−6 cm/sec. Besides, in data set [4] (microsomal half-life), the “Metab. Stabil. (m)” value is reported as above 30 m. The “Sol.” value in data set [5] was above 77 µg/mL.
`COC(=O)c1cncc(NC(=O)C2=C(C)NC(Nc3nc4ccccc4o3)=NC2c2ccccc2Cl)c1` (stereo not shown) [Compound 188, methyl 5-(2-(benzo[d]oxazol-2-ylamino)-4-(2-chlorophenyl)-6-methyl-1,4-dihydropyrimidine-5-carboxamido)nicotinate]: the results for the pIC50 in data set [1] (setting [6]) and in data set [1] (setting [7]) were 4.68 and 4.66, respectively. In addition, the “Perm. (1 × 10^−6 cm/sec)” value in data set [3] (PAMPA) is recorded as 246.9 1 × 10^−6 cm/sec. Also, the “Metab. Stabil. (m)” value in data set [4] (microsomal stability half-life) is given as above 30 m. Also, the “Sol.” value in data set [5] (aqueous kinetic solubility) is below 1 µg/mL.
With `CC1=C(C(=O)Nc2ccc(-c3nnn[nH]3)cc2)C(c2ccccc2Cl)N=C(Nc2nc3ccccc3o2)N1` (stereo not shown) [Compound 192, N-(4-(1H-tetrazol-5-yl)phenyl)-2-(benzo[d]oxazol-2-ylamino)-4-(2-chlorophenyl)-6-methyl-1,4-dihydropyrimidine-5-carboxamide], the pIC50 in data set [1] (setting [6]) and in data set [1] (setting [7]) was 5.31 in each case. In addition, in data set [3] (PAMPA), the Papp was below 1.7 ×10⁻⁶ cm/s. Also, in data set [4] (microsomal stability half-life), the “Metab. Stabil. (m)” value is reported as 30 m. Besides, in data set [5] (aqueous kinetic solubility), the “Sol.” value amounted to 33.4 µg/mL.
Take `COP(=O)(OC)C1=C(C)NC(Nc2nc3ccccc3o2)=NC1c1ccccc1Cl` (stereo not shown) [Compound 242, dimethyl (2-(benzo[d]oxazol-2-ylamino)-4-(2-chlorophenyl)-6-methyl-1,4-dihydropyrimidin-5-yl)phosphonate]: the pIC50 in data set [1] (setting [7]) is 4.76. Further, the “Perm. (1 × 10^−6 cm/sec)” value in data set [3] (PAMPA) was 1813.86 1 × 10^−6 cm/sec. In data set [4] (microsomal stability half-life), the “Metab. Stabil. (m)” value amounted to 5.35 m. The “Sol.” value in data set [5] (aqueous kinetic solubility) turned out to be 12.21 µg/mL.
